Measured values taken from the NIST ThermoML archive (doi:10.1021/je300886k).

Experiments:
[1] = Liquid; for mass density: 298.15 K, 101.33 kPa, Vibrating tube method; for vapor or sublimation pressure: Ebulliometric method (Recirculating still)
[2] = refractive index (Na D-line) (dimensionless); details: 298.15 K; 101.33 kPa; Liquid; Standard Abbe refractometry
[3] = mn = molality of the nth substance listed, in mol/kg; details: 298.15 K, 101 kPa, Liquid, Vibrating tube method

CCO [ethanol]
Details | mass density [kg/m3] | refractive index
[1] | 785.22 | –
[2] | – | 1.3599

Details | vapor or sublimation pressure [kPa]
[1], 352.75 K | 101

CCOC(C)=O [ethyl acetate]
Details | mass density [kg/m3] | refractive index
[1] | 897.72 | –
[2] | – | 1.3698

Details | vapor or sublimation pressure [kPa]
[1], 350.45 K | 101

[Cl-].[Cl-].[Mg+2] [magnesium chloride] + CCO
[3]
Details | mass density [kg/m3]
m1 = 0.0105 | 782.98
m1 = 0.0211 | 783.73
m1 = 0.0317 | 784.5
m1 = 0.0423 | 785.26
m1 = 0.053 | 786.01
m1 = 0.0583 | 786.38
m1 = 0.0636 | 786.75
m1 = 0.0689 | 787.12
m1 = 0.0743 | 787.49
m1 = 0.0796 | 787.86
m1 = 0.085 | 788.23
m1 = 0.0903 | 788.57
m1 = 0.0957 | 788.93

O=[N+]([O-])[O-].O=[N+]([O-])[O-].[Mg+2] [magnesium nitrate] + CCO
[3]
Details | mass density [kg/m3]
m1 = 0.0067 | 782.9
m1 = 0.0135 | 783.59
m1 = 0.0203 | 784.17
m1 = 0.0271 | 784.79
m1 = 0.0339 | 785.43
m1 = 0.0373 | 785.75
m1 = 0.0407 | 786.06
m1 = 0.0441 | 786.43
m1 = 0.0475 | 786.74
m1 = 0.051 | 787.05
m1 = 0.0544 | 787.34
m1 = 0.0578 | 787.64
m1 = 0.0612 | 787.92
m1 = 0.0647 | 788.22
m1 = 0.0681 | 788.49

O=[N+]([O-])[O-].O=[N+]([O-])[O-].[Zn+2] [nitric acid, zinc salt] + CCO
[3]
Details | mass density [kg/m3]
m1 = 0.0053 | 785.9
m1 = 0.0106 | 786.55
m1 = 0.0159 | 787.2
m1 = 0.0212 | 787.84
m1 = 0.0265 | 788.49
m1 = 0.0292 | 788.78
m1 = 0.0319 | 789.09
m1 = 0.0346 | 789.38
m1 = 0.0372 | 789.7
m1 = 0.0399 | 789.99
m1 = 0.0426 | 790.29
m1 = 0.0453 | 790.6
m1 = 0.048 | 790.89
m1 = 0.0507 | 791.19
m1 = 0.0533 | 791.49
m1 = 0.0804 | 794.55
